According to US5459152A, “Platelet activating factor antagonists” (Abbott Laboratories, priority 1993, dated 1995):
Counter-ions that a name gives are not always drawn.

Target: T1, PAF receptor (Oryctolagus cuniculus, UniProt G1TEI7)
T1 construct: platelet membranes where prepared by centrifugation and washing; tissue Pel-Freez (Rogers, AR) (whole rabbit blood); host or cells: rabbit platelet membranes
Assay: PAF receptor binding assay ([3H]C18-PAF, rabbit platelet membranes)
Conditions: inhibition of specific binding of 0.6 nM [3H]C18-PAF to rabbit platelet membranes, 60 min, room temperature; Ki calculated from IC50 by Cheng and Prusoff; read-out: PAF Receptor Binding Activity K1
Description: The ability of representative compounds of the present invention to inhibit PAF activity was determined in an in vitro test using the following method.
Citrated whole rabbit blood was obtained from Pel-Freez (Rogers, AR). Rabbit platelets where prepared by centrifugation and washing. The platelets where lysed by freeze-thawing and sonication; platelet membranes where prepared by centrifugation and washing. Final membrane preparations where stored frozen in 10 mM Tris/5 mM MgCl2 /2 mM EDTA (TME buffer, pH 7.0) with 0.25 M sucrose added for membrane stabilization.
The final volume of the assay was 100 μl. The assay was conducted in Millititre-GV™ (Millipore Corp.) filtration plates; incubation time was for 60 minutes at room temperature (22°-23° C.). "Specific binding" was operationally defined as the arithmetic difference between "total binding" of 0.6 nM [^3 H]C18 -PAF (in the absence of added PAF) and "nonspecific binding" (in the presence of 1 μM PAF). After the prescribed incubation, platelet membranes where filtered under vacuum and washed with 1 millilitre of "binding buffer". The filters was dried and removed. The bound radioactivity was quantitated with a Berthold TLC-Linear Analyzer model LB2842.
Experiments where repeated at least once.

T1 sequence (G1TEI7 1-342): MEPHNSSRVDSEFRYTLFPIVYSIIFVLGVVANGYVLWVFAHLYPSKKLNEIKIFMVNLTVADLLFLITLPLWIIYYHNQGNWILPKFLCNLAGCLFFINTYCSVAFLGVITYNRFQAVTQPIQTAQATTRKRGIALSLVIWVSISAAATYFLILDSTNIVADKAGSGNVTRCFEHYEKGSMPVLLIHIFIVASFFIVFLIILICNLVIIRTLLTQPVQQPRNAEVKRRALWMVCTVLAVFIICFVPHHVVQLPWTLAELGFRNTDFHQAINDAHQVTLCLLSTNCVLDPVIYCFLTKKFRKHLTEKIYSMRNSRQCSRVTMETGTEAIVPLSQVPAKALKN

Compound	Ki [nM]
3(1-Carbamoylamino-pyridin-3-yl)-7-[1-N,N-dimethylcarbamoyl-6-(4-fluorophenyl)indol-3-ylcarbonyl]-1H,3H-pyrrolo[1,2-c]thiazole [Example 77]	100
NCCn1cc(C(=O)c2ccn3c2CSC3c2cccnc2)c2ccc(-c3ccc(F)cc3)cc21 (stereo not drawn) [Example 70, 3-(Pyridin-3-yl)-7-[1-(2-aminoethyl)-6-(4-fluorophenyl)indol-3-ylcarbonyl]-1H,3H-pyrrolo[1,2-c]thiazole Hydrochloride]	2.6

Same assay, conditions: read-out: PAF Receptor Binding Activity K1

Compound	Ki [nM]
O=C(c1ccn2c1C[S+]([O-])C2c1cccnc1)c1c[nH]c2ccccc12 (stereo not drawn) [Example 14, 2-Oxide-3-(pyridin-3-yl)-7-(indol-3-ylcarbonyl)-1H,3H-pyrrolo[1,2-c]thiazole]	2400
CCS(=O)(=O)n1cc(C(=O)c2ccn3c2CSC3c2cccnc2)c2ccc(-c3ccc(F)cc3)cc21 (stereo not drawn) [Example 71, 3-(Pyridin-3-yl)-7-[1-ethanesulfonyl-6-[4-fluorophenyl)indol-3-ylcarbonyl]-1H,3H-pyrrolo[1,2-c]thiazole]	244
CN(C)C(=O)n1cc(C(=O)c2ccn3c2CSC3c2cccnc2)c2ccc(-c3cnc(N)nc3)cc21 (stereo not drawn) [Example 89]	280
CC(=O)OC[n+]1cccc(C2SCc3c(C(=O)c4cn(C(=O)N(C)C)c5cc(-c6ccc(F)cc6)ccc45)ccn32)c1 (stereo not drawn) [Example 92, 3-(1-Acetoxymethylpyridin-3-yl)-7-[1-N,N-dimethylcarbamoyl-6-(4-fluorophenyl)indol-3-ylcarbonyl]-1H,3H-pyrrolo[1,2-c]thiazole]	19
CN(C(=O)n1cc(C(=O)c2ccn3c2CSC3c2cccnc2)c2ccc(OCc3ccccc3)cc21)c1ccccc1 (stereo not drawn) [Example 20, 3-(Pyridin-3-yl)-7-(1-N-methyl-N-phenylcarbamoyl-6-phenylmethoxyindol-3-ylcarbonyl)-1H,3H-pyrrolo[1,2-c]thiazole]	180
COc1ccc(-c2ccc3c(C(=O)c4ccn5c4C(C)(C)SC5c4cccnc4)c[nH]c3c2)cc1 (stereo not drawn) [Example 25, 1,1-Dimethyl-3-(pyridin-3-yl)-7-[6-(4-methoxyphenyl)indol-3-ylcarbonyl]-1H,3H-pyrrolo[1,2-c]thiazole]	272
NCCn1cc(C(=O)c2ccn3c2CSC3c2ccc[n+]([O-])c2)c2ccc(-c3ccc(F)cc3)cc21 (stereo not drawn) [Example 90, 3-(1-Oxide-pyridin-3-yl)-7-[1-(2-aminoethyl)-6-(4-fluorophenyl)indol-3-ylcarbonyl]-1H,3H-pyrrolo[1,2-c]thiazole]	480
O=C(c1ccn2c1COC2c1cccnc1)c1c[nH]c2ccccc12 (stereo not drawn) [Example 15, 3-(Pyridin-3-yl)-7-(indol-3-ylcarbonyl)-1H,3H-pyrrolo[1,2-c]oxazole]	5600

Results, then the compound that gave them:

Ki [nM]	Compound
135	CNC(=O)n1cc(C(=O)c2ccn3c2CSC3c2cccnc2)c2ccc(-c3ccccc3)cc21 (stereo not drawn) [Example 30, 3-(Pyridin-3-yl)-7-(1-N-methylcarbamoyl-6-phenylindol-3-ylcarbonyl)-1H,3H-pyrrolo[1,2-c]thiazole]
120	CN(C)C(=O)n1cc(C(=O)c2ccn3c2CSC3c2cccnc2)c2cc(OCc3ccccc3)ccc21 (stereo not drawn) [Example 6, 3-(Pyridin-3-yl)-7-(N,N-dimethylcarbamoyl-5-phenylmethoxyindol-3-yl)carbonyl-1H,3H-pyrrolo[1,2-c]thiazole]
120	CS(=O)(=O)n1cc(C(=O)c2ccn3c2CSC3c2cccnc2)c2ccc(-c3ccc(F)cc3)cc21 (stereo not drawn) [Example 51, 3-(Pyridin-3-yl)-7-[1-methanesulfonyl-6-(4-fluorophenyl)indol-3-ylcarbonyl]-1H,3-pyrrolo[1,2-c]thiazole]
100	CN(C)C(=O)n1cc(C(=O)c2ccn3c2C(C)(C)SC3c2cccnc2)c2ccccc21 (stereo not drawn) [Example 19, 1,1-Dimethyl-3-(pyridin-3-yl)-7-(1-N,N-dimethylcarbamoyl-indol-3-ylcarbonyl)-1H,3H-pyrrolo[1,2-c]thiazole]
90	O=C(c1ccn2c1CSC2c1cccnc1)c1c[nH]c2c(OCc3ccccc3)cccc12 (stereo not drawn) [Example 5, 3(Pyridin-3-yl)-7-(7-phenylmethoxyindol-3-yl)carbonyl-1H,3H-pyrrolo[1,2-c]thiazole]
85	CC(C)N(C(=O)n1cc(C(=O)c2ccn3c2CSC3c2cccnc2)c2ccc(OCc3ccccc3)cc21)C(C)C (stereo not drawn) [Example 16, 3-(Pyridin-3-yl)-7-(1-N,N-diisopropylcarbamoyl-6-phenylmethoxyindol-3-ylcarbonyl)-1H,3H-pyrrolo[1,2-c]thiazole]
75	O=C(c1ccn2c1CSC2c1cccnc1)c1c[nH]c2cc(-c3ccc(F)cc3)ccc12 (stereo not drawn) [Example 28, 3-(Pyridin-3-yl)-7-[6-(4-fluorophenyl)indol-3-ylcarbonyl]-1H,3H-pyrrolo[1,2-c]thiazole]
64	O=C(c1ccn2c1CSC2c1cccnc1)c1c[nH]c2cc(OCc3ccccc3)ccc12 (stereo not drawn) [Example 4, 3-(Pyridin-3-yl)-7-(6-phenylmethoxyindol-3-yl)carbonyl-1H,3H-pyrrolo[1,2-c]thiazole]
16	CN(C)C(=O)n1cc(C(=O)c2ccn3c2CSC3c2cccnc2)c2ccc(-c3ccccc3)cc21 (stereo not drawn) [Example 52, 3-(Pyridin-3-yl)-7-(1-N,N-dimethylcarbamoyl-6-phenylindol-3-ylcarbonyl)-1H,3H-pyrrolo[1,2-c]thiazole Hydrochloride]
14	CN(C)C(=O)n1cc(C(=O)c2ccn3c2CSC3c2ccc[n+]([O-])c2)c2ccc(-c3ccccc3)cc21 (stereo not drawn) [Example 34, 3-(1-Oxide-pyridin-3-yl)-7-(1-N,N-dimethylcarbamoyl-6-phenylindol-3-ylcarbonyl)-1H,3H-pyrrolo[1,2-c]thiazole]
10.7	ON=C(c1ccn2c1CSC2c1cccnc1)c1c[nH]c2cc(-c3ccc(F)cc3)ccc12 (stereo not drawn) [Example 83, 3-(Pyridin-3-yl)-7-[6-(4-fluorophenyl)indol-3-ylcarbonyloxime]-1H,3H-pyrrolo[1,2-c]thiazole]
10	NC(=O)n1cc(C(=O)c2ccn3c2CSC3c2cccnc2)c2ccc(OCc3ccccc3)cc21 (stereo not drawn) [Example 37, 3-(Pyridin-3-yl)-7-(1-carbamoyl-6-phenylmethoxyindol-3-ylcarbonyl)-1H,3H-pyrrolo[1,2-c]thiazole]
8	COc1cc(-c2ccc3c(C(=O)c4ccn5c4CSC5c4cccnc4)cn(C(=O)N(C)C)c3c2)cc(OC)c1OC (stereo not drawn) [Example 48, 3-(Pyridin-3-yl)-7-[1-N,N-dimethylcarbamoyl-6-(3,4,5-trimethoxyphenyl)indol-3-ylcarbonyl]-1H,3H-pyrrolo[1,2-c]thiazole]
6.9	CN(C)CCN(C)C(=O)n1cc(C(=O)c2ccn3c2CSC3c2cccnc2)c2ccc(-c3ccc(F)cc3)cc21 (stereo not drawn) [Example 84, 3-(Pyridin-3-yl)-7-[1-(N-methyl-N-(dimethylaminoethyl))carbamoyl-6-(4-fluorophenyl)indol-3-ylcarbonyl]-1H,3H-pyrrolo[1,2-c]thiazole]
